Measurements published in PMC8664216 (PLoS Neglected Tropical Diseases, 2021).
pEC50: −log10 of the molar value.

How the values were obtained:
[1] = system: CHIKV-LR trans-replicase system; assay: CHIKV trans-replicase system, tomato marker by flow cytometry; format: cell-based, Chikungunya virus; details: for Percentage of fluorescent tomato marker expressing cells / Reduction of marker expressing cells compared to EtOH control: Huh7 cells; for Percentage of fluorescent tomato marker expressing cells: read at 24 h, EtOH control 8.18±0.45%
[2] = system: Huh7 cells; assay: ATPLite cytotoxicity assay; details: 7 μM ivermectin, 24 h
[3] = system: CHIKV-LR; assay: Western blot of CHIKV nsP2, E1 and capsid proteins; format: cell-based, Chikungunya virus; details: 9 hpi
[4] = system: CD98; assay: Western blot of CD98 in mock- or CHIKV-infected Huh7 cells; format: cell-based, human; details: 10 μM tomatidine, 9 hpi
[5] = system: CHIKV-LR; details: in vitro; cited from earlier work
[6] = system: p62; assay: Western blot of p62 in mock- or CHIKV-infected Huh7 cells; format: cell-based, human; details: 10 μM tomatidine, 9 hpi
[7] = system: DENV-2; details: DENV-2, in vitro; cited from earlier work
[8] = system: Huh7 cells; details: cited from earlier work
[9] = system: TMX2; assay: Western blot of TMX2 in mock- or CHIKV-infected Huh7 cells; format: cell-based, human; details: 10 μM tomatidine, 9 hpi
[10] = system: CHIKV-LR; assay: Infectious particle production (plaque assay) in siRNA knockdown Huh7 cells; format: cell-based, Chikungunya virus; details: CHIKV MOI 10, 10 μM tomatidine, 9 hpi
[11] = system: CHIKV-LR; assay: Time-trace and time-chase: intracellular CHIKV RNA copies by Q-RT-PCR; format: cell-based, Chikungunya virus; details: Huh7 cells; for Intracellular viral RNA load: MOI 10, 10 μM tomatidine at time of infection; for Reduction of intracellular RNA load compared to EtOH control: MOI 10, 10 μM tomatidine
[12] = system: CHIKV in vitro transcribed RNA (CHIK-LR); assay: Virus cell entry-bypass assay: electroporation of in vitro transcribed CHIKV RNA, plaque assay; format: cell-based, Chikungunya virus; details: Huh7 cells electroporated with CHIKV RNA, 10 μM tomatidine, 16 h post-transfection
[13] = Huh7, MOI 10, 10 μM tomatidine added at 4 hpi
[14] = Huh7, MOI 10, 10 μM tomatidine added at 6 hpi
[15] = Huh7, MOI 10, 10 μM tomatidine added simultaneous to infection
[16] = CHIKV-infected (MOI 10) Huh7 cells

ivermectin
Percentage of fluorescent tomato marker expressing cells ([1]; 7 μM ivermectin added 1 h post-transfection): 2.19±0.5% | Reduction of marker expressing cells compared to EtOH control ([1]; 7 μM ivermectin, 24 h post-transfection): 73% | MFI of tomato marker relative to EtOH control ([1]; marker-positive Huh7 cells, 7 μM ivermectin, 24 h post-transfection): 0.4±0.06 | Cytotoxicity of the selected concentration [2]: non-toxic

C[C@H]1CC[C@]2(NC1)O[C@H]1C[C@H]3[C@@H]4CC[C@H]5C[C@@H](O)CC[C@]5(C)[C@H]4CC[C@]3(C)[C@H]1[C@@H]2C [tomatidine, Tomatidine]
C (capsid) expression compared to EtOH control [3, 13]: 50% | E1 expression compared to EtOH control [3, 13]: 30% | nsP2 expression compared to EtOH control [3, 13]: 50% | C (capsid) expression compared to EtOH control [3, 14]: 60% | E1 expression compared to EtOH control [3, 14]: 40% | nsP2 expression compared to EtOH control [3, 14]: 60% | C (capsid) expression compared to EtOH control [3, 15]: 46% | E1 expression compared to EtOH control [3, 15]: 18% | nsP2 expression compared to EtOH control [3, 15]: 50% | Increase of CD98 expression compared to solvent control [4, 16]: 1.4 fold | Increase of CD98 expression compared to solvent control ([4]; mock-infected Huh7 cells): 1.6 fold | pEC50 [5]: 5.89 | Increase of p62 expression compared to solvent control [6, 16]: 1.8 fold | Increase of p62 expression compared to solvent control ([6]; mock-infected Huh7 cells): 1.7 fold | pEC50 [7]: 6.09 | Highest non-toxic yet antiviral dose [8]: 10 µM | Change in protein expression of TMX2 [9]: did not induce any significant change | Percentage of fluorescent tomato marker expressing cells ([1]; 10 μM tomatidine added 1 h post-transfection): 4.4±0.69% | Reduction of marker expressing cells compared to EtOH control ([1]; 10 μM tomatidine, 24 h post-transfection): 46% | Inhibition of infectious particle production compared to EtOH control ([10]; Huh7 cells with CD98 siRNA knock-down): 91.68% | Inhibition of infectious particle production compared to EtOH control ([10]; Huh7 cells with p62 knock-down (siRNA #1)): 86.37% | Inhibition of infectious particle production compared to EtOH control ([10]; Huh7 cells with p62 knock-down (siRNA #4)): 90.82% | Intracellular viral RNA load ([11]; 1 and 2 hpi (all experimental conditions)): ~ 7 Log10 copies | Intracellular viral RNA load ([11]; 4 hpi, EtOH 8.0±0.2): 7.8±0.1 Log10 copies | Intracellular viral RNA load ([11]; 6 hpi, EtOH 9.7±0.1): 9.2±0.1 Log10 copies | Intracellular viral RNA load ([11]; 8 hpi, EtOH 10.3±0.0): 9.9±0.1 Log10 copies | Reduction of intracellular RNA load compared to EtOH control ([11]; 6 hpi): 74% | Reduction of intracellular RNA load compared to EtOH control ([11]; 8 hpi): 62% | Intracellular viral RNA copy number vs absence of tomatidine (time-chase) ([11]; MOI 10, tomatidine added at 6 hpi, RNA at 8 and 10 hpi, without tomatidine 10.3±0.0 and 10.6±0.0 Log10): Comparable results | Reduction of virus titer [12]: 2.6 log | Infectious virus titer ([12]; EtOH control 5.0±0.1): 2.4±0.3 Log10 PFU/mL
